Laboratory results as given in patent US20090054392A1, “NAPHTHYLPYRIMIDINE, NAPHTHYLPYRAZINE AND NAPHTHYLPYRIDAZINE ANALOGS AND THEIR USE AS AGONISTS OF THE WNT-BETA-CATENIN CELLULAR MESSAGING SYSTEM” (Wyeth, priority 2007, published 2009).

Test system: Dkk1-LRP5-TCF-Luciferase
Test: Functional Dkk1-LRP5-TCF-Luciferase Assay in U2OS Cells
Conditions: for fold induction at 2 µM / fold induction at 20 µM / EC50: Homo sapiens, U2OS; for fold induction at 2 µM: read-out: B = TCF ACTIVITY/DMSO CONTROL Fold induction @ 2.0 uM, 2.0 uM compound; for fold induction at 20 µM: read-out: C = TCF ACTIVITY/DMSO CONTROL Fold induction @ 20.0 uM, 20.0 uM compound; for A = MAX FOLD Induction/DMSO CONTROL: maximum fold induction over DMSO control
Procedure: Biological Evaluation—Functional Dkk1-LRP5-TCF-Luciferase Assay in U2OS Cells
Frozen U2OS-Dkk1-HTS Reporter cells generation: U2OS Human Bone derived cells (Osteosarcoma) are grown in McCoy's 5A Medium (Modified), with L -glutamine (GIBCO Cat No. 16600-082)+1% Pen-Strep+5% FBS) plated at 1×10^7 cells/T175 cm flask. The next day, the cells are co-transfected overnight with the following plasmids: (a) Test reporter (16×TCF-TK-FireFly-Luci), (b) Internal Control Reporter (TK-Renilla-Luci), (c) Wnt3a and (d) Dkk1. GIBCO's Lipofectamine 2000 and OptiMEM are used for the transfection. After a minimum of 4 hr of transfection at 37° C., the plasmid-transfected cells are trypsinized, counted, and suspended in freezing medium (95% FBS+5% DMSO). The reporter cells are frozen at 1×10^7/ml concentrations, aliquoted into 0.5 ml or 2.5 ml/tube and stored at 70° C.
The following day, test compounds are added under HTS setup by Plate Track into 384 well plates (white, TC treated, Falcon plate) such that the final concentration of the compounds in 20 μL/well cell will be 5 μg/ml (final concentration of DMSO=0.25% and final compound concentration=20 μM). Vials of frozen reporter cells are thawed by warming the vial in a 37° C. water bath for 60-120 seconds with some shaking until the cells formed a suspension. The thawed cells are transferred into a cold 50 ml (or larger) tube and mixed well by gentle pipetting. The appropriate amount of cold Phenol Red Free RPMI medium-1640 (GIBCO, Cat #11835-030) with L-glutamine is added, both with ˜5% FBS (GIBCO-BRL, Cat. #16000-044), so that 20 μl of the final cell suspension will contain ˜5,000 cells. The cell dilution is done such that the final concentration of FBS is ˜5%.
Diluted cells (20 μl) are added into each well in a 384 well plate. The plate is incubated at 37° C. under 5% CO2 for ˜20 h. Bright-Glo substrate, 2.5 μl/well is added, and the Fire Fly Luciferase is measured using VLUX (60 second exposure) immediately after the substrate is added. Test compounds are dissolved in DMSO (100%) and added to specified wells. Raw luciferase signal data obtained as relative luminescence units (RLUs) for the test compounds are normalized to the signal of the mean of the sample reporter cell plate with DMSO.

Structure (SMILES): CNc1nccc(-c2ccc3ccccc3c2)n1 [N-methyl-4-(2-naphthyl)pyrimidin-2-amine]
- fold induction at 2 µM: 1.34

Structure (SMILES): CN(CCCO)[C@@H]1CCN(c2nccc(-c3ccc4ccccc4c3)n2)C1 [3-(methyl{(3R)-1-[4-(2-naphthyl)pyrimidin-2-yl]pyrrolidin-3-yl}amino)propan-1-ol]
- fold induction at 20 µM: 3.3

Structure (SMILES): CCNC(=O)N1CCC(Nc2nccc(-c3ccc4ccccc4c3)n2)CC1 [N-ethyl-4-{[4-(2-naphthyl)pyrimidin-2-yl]amino}piperidine-1-carboxamide]
- EC50: 18200 nM
- fold induction at 2 µM: 1.14
- fold induction at 20 µM: 1.6
- A = MAX FOLD Induction/DMSO CONTROL: 2.280 fold

Structure (SMILES): CCC(C)Nc1nccc(-c2ccc3ccccc3c2)n1 (centres unmarked) [N-(sec-butyl)-4-(2-naphthyl)pyrimidin-2-amine]
- fold induction at 2 µM: 1.01
- fold induction at 20 µM: 1.34

Structure (SMILES): CN(C)C(=O)N1CCC(CNc2nccc(-c3ccc4ccccc4c3)n2)CC1 [N,N-dimethyl-4-({[4-(2-naphthyl)pyrimidin-2-yl]amino}methyl)piperidine-1-carboxamide]
- fold induction at 2 µM: 0.87
- fold induction at 20 µM: 1.24

Structure (SMILES): CC(=O)NC1CCCN(c2nccc(-c3ccc4ccccc4c3)n2)CC1 (centres unmarked) [N-{1-[4-(2-naphthyl)pyrimidin-2-yl]azepan-4-yl}acetamide]
- fold induction at 2 µM: 1.26
- fold induction at 20 µM: 2.91
- A = MAX FOLD Induction/DMSO CONTROL: 1.350 fold

Structure (SMILES): c1ccc2cc(-c3ccnc(N4CC[C@@H](N5CCCCC5)C4)n3)ccc2c1 [4-(2-naphthyl)-2-[(3R)-3-piperidin-1-ylpyrrolidin-1-yl]pyrimidine]
- fold induction at 2 µM: 1.29
- fold induction at 20 µM: 0.06

Structure (SMILES): CC(C)(C)OC(=O)N1CC[C@H](Nc2nccc(-c3ccc4ccccc4c3)n2)C1 [tert-butyl (3S)-3-{[4-(2-naphthyl)pyrimidin-2-yl]amino}pyrrolidine-1-carboxylate]
- fold induction at 2 µM: 2.11
- A = MAX FOLD Induction/DMSO CONTROL: 1.270 fold

Structure (SMILES): CC(C)(C)NC(=O)[C@@H]1CCCN1c1nccc(-c2ccc3ccccc3c2)n1 [N-tert-butyl-1-[4-(2-naphthyl)pyrimidin-2-yl]-L-prolinamide]
- fold induction at 2 µM: 1.94

Structure (SMILES): NC[C@H]1CC[C@@H](c2nccc(-c3ccc4ccccc4c3)n2)CC1 [1-{cis-4-[4-(2-naphthyl)pyrimidin-2-yl]cyclohexyl}methanamine]
- fold induction at 2 µM: 3.4

Structure (SMILES): CN(C)[C@H]1CCN(C(=O)[C@H]2CCCN2c2nccc(-c3ccc4ccccc4c3)n2)C1 [(3S)—N,N-dimethyl-1-{1-[4-(2-naphthyl)pyrimidin-2-yl]-D-prolyl}pyrrolidin-3-amine]
- fold induction at 2 µM: 1.05
- fold induction at 20 µM: 2.43
- A = MAX FOLD Induction/DMSO CONTROL: 2.115 fold

Structure (SMILES): CN(CCN(C)S(=O)(=O)N(C)C)[C@@H]1CCN(c2nccc(-c3ccc4ccccc4c3)n2)C1 [N,N,N′-trimethyl-N′-[2-(methyl{(3R)-1-[4-(2-naphthyl)pyrimidin-2-yl]pyrrolidin-3-yl}amino)ethyl]sulfamide]
- fold induction at 2 µM: 1.3

Structure (SMILES): CC(=O)N1CCC(N(C)c2nccc(-c3ccc4ccccc4c3)n2)CC1 [N-(1-acetylpiperidin-4-yl)-N-methyl-4-(2-naphthyl)pyrimidin-2-amine]
- fold induction at 2 µM: 1.37
- fold induction at 20 µM: 0.37
- A = MAX FOLD Induction/DMSO CONTROL: 1.650 fold

Structure (SMILES): CN(C)C(=O)N1CC[C@H](Nc2nccc(-c3ccc4ccccc4c3)n2)C1 [(3S)—N,N-dimethyl-3-{[4-(2-naphthyl)pyrimidin-2-yl]amino}pyrrolidine-1-carboxamide]
- EC50: 2700 nM
- fold induction at 2 µM: 2.05
- fold induction at 20 µM: 3.05
- A = MAX FOLD Induction/DMSO CONTROL: 2.945 fold

Structure (SMILES): CN(C)[C@H]1CCN(C[C@H]2CCN(c3nccc(-c4ccc5ccccc5c4)n3)C2)C1 [(3S)—N,N-dimethyl-1-({(3R)-1-[4-(2-naphthyl)pyrimidin-2-yl]pyrrolidin-3-yl}methyl)pyrrolidin-3-amine]
- fold induction at 2 µM: 2.55
- fold induction at 20 µM: 0.02
- A = MAX FOLD Induction/DMSO CONTROL: 2.260 fold

Structure (SMILES): c1ccc2cc(-c3ccnc(N4CCCCC4)n3)ccc2c1 [4-(2-naphthyl)-2-piperidin-1-ylpyrimidine]
- fold induction at 2 µM: 0.92
- fold induction at 20 µM: 1.79

Structure (SMILES): CN(CCN(C)[C@@H]1CCN(c2nccc(-c3ccc4ccccc4c3)n2)C1)C(=O)C(F)(F)F [2,2,2-trifluoro-N-methyl-N-[2-(methyl{(3R)-1-[4-(2-naphthyl)pyrimidin-2-yl]pyrrolidin-3-yl}amino)ethyl]acetamide]
- fold induction at 2 µM: 1.5

Structure (SMILES): CCN(CC)C(=O)NCCC1CCN(c2nccc(-c3ccc4ccccc4c3)n2)CC1 [N,N-diethyl-N′-(2-{1-[4-(2-naphthyl)pyrimidin-2-yl]piperidin-4-yl}ethyl)urea]
- fold induction at 2 µM: 1.13
- fold induction at 20 µM: 0.33

Structure (SMILES): O=C1N[C@H](C2CCN(c3nccc(-c4ccc5ccccc5c4)n3)CC2)CO1 [(4R)-4-{1-[4-(2-naphthyl)pyrimidin-2-yl]piperidin-4-yl}-1,3-oxazolidin-2-one]
- fold induction at 2 µM: 1.4
- fold induction at 20 µM: 0.01

Structure (SMILES): CCOC(=O)N1CCCN(c2nccc(-c3ccc4ccccc4c3)n2)CC1 [ethyl 4-[4-(2-naphthyl)pyrimidin-2-yl]-1,4-diazepane-1-carboxylate]
- EC50: 30000 nM
- fold induction at 20 µM: 2.49
- A = MAX FOLD Induction/DMSO CONTROL: 1.790 fold

Structure (SMILES): Cc1ccc(S(=O)(=O)N2CCCN(c3nccc(-c4ccc5ccccc5c4)n3)CC2)cc1 [1-[(4-methylphenyl)sulfonyl]-4-[4-(2-naphthyl)pyrimidin-2-yl]-1,4-diazepane]
- fold induction at 2 µM: 1.76

Structure (SMILES): O=CNC1CCCN(c2nccc(-c3ccc4ccccc4c3)n2)CC1 (centres unmarked) [{1-[4-(2-naphthyl)pyrimidin-2-yl]azepan-4-yl}formamide]
- EC50: 2250 nM
- fold induction at 2 µM: 1.5
- fold induction at 20 µM: 2.05
- A = MAX FOLD Induction/DMSO CONTROL: 1.800 fold

Structure (SMILES): CCOC(=O)C1CCN(c2nccc(-c3ccc4ccccc4c3)n2)CC1 [ethyl 1-[4-(2-naphthyl)pyrimidin-2-yl]piperidine-4-carboxylate]
- fold induction at 2 µM: 1.64
- fold induction at 20 µM: 1.91
- A = MAX FOLD Induction/DMSO CONTROL: 1.950 fold

Structure (SMILES): N#Cc1ccc(C(=O)N[C@H]2CCN(c3nccc(-c4ccc5ccccc5c4)n3)C2)cc1 [4-cyano-N-{(3S)-1-[4-(2-naphthyl)pyrimidin-2-yl]pyrrolidin-3-yl}benzamide]
- fold induction at 2 µM: 0.84
- fold induction at 20 µM: 1.24

Structure (SMILES): O=C(NCC1CCN(c2nccc(-c3ccc4ccccc4c3)n2)CC1)c1ccccc1 [N-({1-[4-(2-naphthyl)pyrimidin-2-yl]piperidin-4-yl}methyl)benzamide]
- fold induction at 2 µM: 1.69

Structure (SMILES): CN1CCN([C@H]2CCN(c3nccc(-c4ccc5ccccc5c4)n3)C2)CC1 [2-[(3S)-3-(4-methylpiperazin-1-yl)pyrrolidin-1-yl]-4-(2-naphthyl)pyrimidine]
- EC50: 696 nM
- fold induction at 2 µM: 5.69
- fold induction at 20 µM: 0.01
- A = MAX FOLD Induction/DMSO CONTROL: 7.175 fold

Structure (SMILES): NC(=O)NCC1CCN(c2nccc(-c3ccc4ccccc4c3)n2)CC1 [N-({1-[4-(2-naphthyl)pyrimidin-2-yl]piperidin-4-yl}methyl)urea]
- fold induction at 2 µM: 1.29
- fold induction at 20 µM: 1.18

Structure (SMILES): N#CC1CCN(c2nccc(-c3ccc4ccccc4c3)n2)CC1 [1-[4-(2-naphthyl)pyrimidin-2-yl]piperidine-4-carbonitrile]
- EC50: 1080 nM
- fold induction at 2 µM: 2.79
- A = MAX FOLD Induction/DMSO CONTROL: 5.015 fold

Structure (SMILES): COC(=O)[C@H](N)C1CCN(c2nccc(-c3ccc4ccccc4c3)n2)CC1 [methyl (2R)-amino{1-[4-(2-naphthyl)pyrimidin-2-yl]piperidin-4-yl}acetate]
- EC50: 8860 nM
- fold induction at 2 µM: 1.68
- fold induction at 20 µM: 1.05
- A = MAX FOLD Induction/DMSO CONTROL: 3.200 fold

Structure (SMILES): CN(C)C(=O)NC1CCCN(c2nccc(-c3ccc4ccccc4c3)n2)CC1 (centres unmarked) [N,N-dimethyl-N′-{1-[4-(2-naphthyl)pyrimidin-2-yl]azepan-4-yl}urea]
- fold induction at 2 µM: 1.74
- fold induction at 20 µM: 1.75

Structure (SMILES): NCC1CCN(c2nccc(-c3ccc4ccccc4c3)n2)C1 (centres unmarked) [1-{1-[4-(2-naphthyl)pyrimidin-2-yl]pyrrolidin-3-yl}methanamine]
- EC50: 2260 nM
- fold induction at 2 µM: 4.53
- fold induction at 20 µM: 0.01
- A = MAX FOLD Induction/DMSO CONTROL: 4.063 fold

Structure (SMILES): CCN(CC)CC1CCN(c2nccc(-c3ccc4ccccc4c3)n2)CC1 [N-ethyl-N-({1-[4-(2-naphthyl)pyrimidin-2-yl]piperidin-4-yl}methyl)ethanamine]
- fold induction at 2 µM: 1.14
- fold induction at 20 µM: 0.02

Structure (SMILES): CN(c1nccc(-c2ccc3ccccc3c2)n1)C1CCN(C(=O)c2ccccc2)CC1 [N-(1-benzoylpiperidin-4-yl)-N-methyl-4-(2-naphthyl)pyrimidin-2-amine]
- fold induction at 2 µM: 1.85

Structure (SMILES): CN1CCN(C[C@H]2CCN(c3nccc(-c4ccc5ccccc5c4)n3)C2)CC1 [2-{(3R)-3-[(4-methylpiperazin-1-yl)methyl]pyrrolidin-1-yl}-4-(2-naphthyl)pyrimidine]
- fold induction at 2 µM: 2.5
- fold induction at 20 µM: 0.01
- A = MAX FOLD Induction/DMSO CONTROL: 2.180 fold

Structure (SMILES): O=C(NC1CCCCC1)N1CCC(Nc2nccc(-c3ccc4ccccc4c3)n2)CC1 [N-cyclohexyl-4-{[4-(2-naphthyl)pyrimidin-2-yl]amino}piperidine-1-carboxamide]
- fold induction at 20 µM: 1.45

Structure (SMILES): N[C@@H]1CCN(c2nccc(-c3ccc4ccccc4c3)n2)C1 [(3R)-1-[4-(2-naphthyl)pyrimidin-2-yl]pyrrolidin-3-amine]
- fold induction at 2 µM: 1.62
- fold induction at 20 µM: 0.01

Structure (SMILES): CS(=O)(=O)N1CCC(Nc2nccc(-c3ccc4ccccc4c3)n2)CC1 [N-[1-(methylsulfonyl)piperidin-4-yl]-4-(2-naphthyl)pyrimidin-2-amine]
- EC50: 60 nM
- fold induction at 2 µM: 2.24
- fold induction at 20 µM: 1.54
- A = MAX FOLD Induction/DMSO CONTROL: 1.730 fold

Structure (SMILES): CCN(CCO)CC1CCN(c2nccc(-c3ccc4ccccc4c3)n2)CC1 [2-[ethyl({1-[4-(2-naphthyl)pyrimidin-2-yl]piperidin-4-yl}methyl)amino]ethanol]
- fold induction at 2 µM: 4.93
- fold induction at 20 µM: 0.01
- A = MAX FOLD Induction/DMSO CONTROL: 2.760 fold
